Key:
patients with PD = assay: Safety, adverse events and compliance, phase I trial; assay type: in vivo
Procedure: Thirty PD patients were randomly assigned (Block size 6, allocation 1:1) to 500 mg NR, provided in the form of nicotinamide riboside chloride (Niagen® from Chromadex), or placebo twice per day, 12 hours apart, using the electronic Case Report Form (Viedoc.com). The drug containers were sequentially marked by an independent third party. The NR (Niagen®) and placebo were provided by ChromaDex, USA. Each NR capsule contained 250 mg of NR. Placebo capsules contained microcrystalline cellulose. The vials and capsules containing NR and placebo were identical in shape, colour, and smell. Study drug compliance was calculated from counting returned number of study capsules and self-reporting. Participants, examining physicians, medical- and research personnel were blinded for the duration of the trial. Sample size was determined by comparing previous literature with respect to the primary objective.
At screening for trial entry, candidates underwent physical and neurological examination, brain MRI, and DaTscan. Eligible patients who entered the trial were assessed at baseline (visit 1, V1) and after four weeks of exposure to either NR or placebo (visit 2, V2). At both visits, patients underwent physical and neurological examination, including assessment by the Movement Disorder Society Unified Parkinson's Disease Rating Scale section I-IV (MDS-UPDRS), and biological sampling. MR-PET was performed within one week prior to visit 1, and at visit 2. All participants remained naïve for antiparkinson drugs for the duration of the trial. All clinical assessments were performed by a blinded movement disorders expert. Each patient was examined by the same neurologist at both visits. Methodological details on each procedure are provided below. Safety was monitored through routine clinical blood tests and registration of adverse events. Adverse events (AE) were recorded and scored by the investigative physician. Severity was scored according to severity grading defined by Common Terminology Criteria for Adverse Events v5.0 (CTCAE) as (1) mild, (2) moderate, (3) severe, (4) life-threatening or (5) death. The AE relation to the study drug was scored as (1) unrelated, (2) unlikely, (3) possible, (4) probable or (5) definitely.

gene expression in PBMCs = assay: RNA-seq differential gene expression in PBMCs; assay type: in vivo, human
Procedure: For all subjects at both visits, total RNA was extracted from muscle biopsy tissue and PBMC homogenate using RNeasy plus mini kit (Qiagen) with on-column DNase treatment according to manufacturer's protocol. The final elution was made in 45 ul of dH2O. The concentration and integrity of the total RNA were estimated by Ribogreen assay (Thermo Fisher Scientific), and Fragment Analyzer (Advanced Analytical), respectively, and 10 ng of total RNA was used for downstream RNA-seq applications using the SMARTer Stranded Total RNA-Seq Kit v2—Pico Input Mammalian Kit (IlluminaTakara Bio USA, Inc., Mountian View, CA) as per manufacturer's recommended protocol. Library quantity was assessed by Picogreen Assay (Thermo Fisher Scientific), and the library quality was estimated by utilizing a DNA High Sense chip on a Caliper Gx (Perkin Elmer). Accurate quantification of the final libraries for sequencing applications was determined using the qPCR-based KAPA Biosystems Library Quantification kit (Kapa Biosystems, Inc.). Each library pooled equimolar prior to clustering. One hundred bp paired-end sequencing was performed on an Illumina NovaSeq S4 sequencer (Illumina, Inc.). Two subjects were discarded from the PBMC samples and two from the muscle samples due to either insufficient tissue quantity, participant drop out/lack of sample, or being outliers in expression.
FASTQ files were assessed using fastQC version 0.11.9. Quantification at the transcript level was calculated using Salmon version 1.3.0 with fragment-level GC bias correction against the GENCODE version 35, with the whole genome as decoy sequence. Transcript-level quantification was collapsed onto gene-level using the tximport R package version 1.8.0. Genes in non-canonical chromosomes and scaffolds and transcripts encoded by the mitochondrial genome were filtered out, together with non-protein-coding genes. Low-expressed genes were likewise removed from downstream analyses (expression below 10 reads for 75% of the samples). PBMC and muscle datasets were analysed independently. For PBMC samples, cell type composition was assessed employing ABIS. Differential gene expression was performed using the DESeq2 R package version 1.22.2. The generalized linear model formula accounted for both interindividual variability between subjects and the normal course of the experiment (baseline for each subject and baseline for the time-course). Multiple hypothesis testing was performed with the default automatic filtering of DESeq2 followed by false discovery rate (FDR) calculation by the Benjamini-Hochberg procedure.

yeast = conditions: Belenky et al. 2007; cited from earlier work
patients with ALS = conditions: de la Rubia et al. 2019; cited from earlier work
drosophila fly models = conditions: Schöndorf et al. 2018; cited from earlier work
rats = conditions: rat, in vivo; cited from earlier work

Q: Which “CTCAE Grading: Upper Respiratory infection” value (patients with PD; 1 event, NR group) does the source give for `NC(=O)c1ccc[n+]([C@@H]2O[C@H](CO)[C@@H](O)[C@H]2O)c1` [NR, nicotinamide riboside] here?
A: The value was “Grade 1 (1)”.

Q: And the “Adverse events (n): Anorexia” value (patients with PD; human, in vivo, 4 weeks)?
A: The value was 1.

Q: And the “Adverse events (n): Cholelithiasis” value (patients with PD; human, in vivo, 4 weeks)?
A: Its value is 1.

Q: And the “Adverse events (n): Fatigue” value (patients with PD; human, in vivo, 4 weeks)?
A: Its value is 1.

Q: What about the “Adverse events (n): Headache” value (patients with PD; human, in vivo, 4 weeks) of the same molecule?
A: The value was 3.

Q: And the “Adverse events (n): Hematoma (leg)” value (patients with PD; human, in vivo, 4 weeks)?
A: The value was 2.

Q: And the “Adverse events (n): Inguinal hernia” value (patients with PD; human, in vivo, 4 weeks)?
A: The value was 1.

Q: And the “Adverse events (n): Leg Pain” value (patients with PD; human, in vivo, 4 weeks)?
A: The value was 1.

Q: What about the “Adverse events (n): Nausea” value (patients with PD; human, in vivo, 4 weeks) of the same molecule?
A: The value was 1.

Q: And the “Adverse events (n): Upper Respiratory infection” value (patients with PD; human, in vivo, 4 weeks)?
A: The value was 1.

Q: What about the “CTCAE Grading: Anorexia” value (patients with PD; human, in vivo, 4 weeks) of the same molecule?
A: The value was “Grade 1 (1)”.

Q: What about the “CTCAE Grading: Cholelithiasis” value (patients with PD; human, in vivo, 4 weeks) of the same molecule?
A: The value was “Grade 1 (1)”.

Q: What about the “CTCAE Grading: Fatigue” value (patients with PD; human, in vivo, 4 weeks) of the same molecule?
A: Its value is “Grade 1 (1)”.

Q: And the “CTCAE Grading: Headache” value (patients with PD; human, in vivo, 4 weeks)?
A: Its value is “Grade 1 (4)”.

Q: What about the “CTCAE Grading: Inguinal hernia” value (patients with PD; human, in vivo, 4 weeks) of the same molecule?
A: Its value is “Grade 1 (1)”.

Q: What about the “CTCAE Grading: Leg Pain” value (patients with PD; human, in vivo, 4 weeks) of the same molecule?
A: Its value is “Grade 1 (1)”.

Q: And the “CTCAE Grading: Nausea” value (patients with PD; human, in vivo, 4 weeks)?
A: The value was “Grade 1 (1)”.

Q: What about the “Causal Relationship to Study Drug: Anorexia” value (patients with PD; human, in vivo, 4 weeks) of the same molecule?
A: Its value is “Unlikely (1)”.

Q: And the “Causal Relationship to Study Drug: Cholelithiasis” value (patients with PD; human, in vivo, 4 weeks)?
A: The value was “Unrelated (1)”.

Q: What about the “Causal Relationship to Study Drug: Fatigue” value (patients with PD; human, in vivo, 4 weeks) of the same molecule?
A: The value was “Unlikely (1)”.

Q: And the “Causal Relationship to Study Drug: Hematoma (leg)” value (patients with PD; human, in vivo, 4 weeks)?
A: The value was “Unrelated (2)”.

Q: And the “Causal Relationship to Study Drug: Inguinal hernia” value (patients with PD; human, in vivo, 4 weeks)?
A: The value was “Unrelated (1)”.

Q: And the “Causal Relationship to Study Drug: Leg Pain” value (patients with PD; human, in vivo, 4 weeks)?
A: Its value is “Unrelated (1)”.

Q: And the “Causal Relationship to Study Drug: Nausea” value (patients with PD; human, in vivo, 4 weeks)?
A: The value was “Unlikely (1)”.

Q: And the “Causal Relationship to Study Drug: Upper Respiratory infection” value (patients with PD; human, in vivo, 4 weeks)?
A: The value was “Unlikely (1)”.

Q: What about the “severity and relatedness of reported adverse events” value (patients with PD; in vivo) of the same molecule?
A: Its value is “minor and considered to be unrelated to NR”.

Q: What about the “subjects reporting adverse events” value (patients with PD; in vivo) of the same molecule?
A: The value was “Seven”.

Q: And the “BLOC1S2 expression in PBMCs” value (gene expression in PBMCs; NR vs placebo)?
A: Its value is “upregulation”.

Q: And the “functional enrichment in PBMCs: ribosomal, proteasomal, lysosomal and mitochondrial (oxidative phosphorylation) pathways” value (gene expression in PBMCs; NR vs placebo)?
A: Its value is “highly significant upregulation”.

Q: And the “genes encoding known NAD biosynthetic enzymes including NMRK1” value (gene expression in PBMCs; NR vs placebo)?
A: Its value is “No significant changes”.

Q: What about the “number of genes significantly associated with NR supplementation in PBMCs” value (gene expression in PBMCs; NR vs placebo) of the same molecule?
A: Its value is 13 genes.

Q: What about the “Direction of pathway enrichment (MitoCarta v3.0): mtRNA metabolism” value (gene expression in PBMCs; P 0.003136, corrected P 0.13170171) of the same molecule?
A: Its value is “DOWN”.

Q: What about the “Direction of pathway enrichment (MitoCarta v3.0): mt-tRNA modifications” value (gene expression in PBMCs; P 0.009994, corrected P 0.209874) of the same molecule?
A: The value was “DOWN”.

Q: What about the “Direction of pathway enrichment (MitoCarta v3.0): Cl assembly factors” value (gene expression in PBMCs; P 0.013122, corrected P 0.183708) of the same molecule?
A: Its value is “DOWN”.

Q: What about the “Direction of pathway enrichment (MitoCarta v3.0): mtRNA granules” value (gene expression in PBMCs; P 0.018336, corrected P 0.192528) of the same molecule?
A: Its value is “DOWN”.

Q: And the “Direction of pathway enrichment (MitoCarta v3.0): Vitamin metabolism” value (gene expression in PBMCs; P 0.02605831, corrected P 0.21888977)?
A: Its value is “DOWN”.

Q: And the “Direction of pathway enrichment (MitoCarta v3.0): Mitochondrial ribosome assembly” value (gene expression in PBMCs; P 0.027256, corrected P 0.190792)?
A: The value was “DOWN”.

Q: And the “Direction of pathway enrichment (MitoCarta v3.0): mt-tRNA synthetases” value (gene expression in PBMCs; P 0.03548, corrected P 0.21288)?
A: Its value is “DOWN”.

Q: What about the “Direction of pathway enrichment (MitoCarta v3.0): OXPHOS assembly factors” value (gene expression in PBMCs; P 0.04239743, corrected P 0.2225865) of the same molecule?
A: The value was “DOWN”.

Q: What about the “association with estimated cell type proportions in PBMC samples” value (gene expression in PBMCs; p>0.5) of the same molecule?
A: Its value is “did not show a significant association”.

Q: What about the lifespan in yeast (yeast) of the same molecule?
A: The lifespan in yeast was “extends lifespan”.

Q: What about the “clinical effect in patients with ALS” value (patients with ALS) of the same molecule?
A: Its value is “substantial clinical improvement”.

Q: What about the “mitochondrial defects and dopaminergic neuronal loss in drosophila fly models” value (drosophila fly models) of the same molecule?
A: Its value is “rescues mitochondrial defects and age-related dopaminergic neuronal loss”.

Q: And the non-lethal oral dose (rats)?
A: The non-lethal oral dose was no less than 5000 mg/kg.
